Assay results published in patent US20260174875A1 (Novo Nordisk A/S, priority 2023, published 2026).
Numbered stars: 1 amine (or outer) side, 2 acyl side, 3 side chain; on linkers, the order of the positions; unused ones are H or OH. Square brackets hold non-standard residues; d marks the D form. Side chains are listed from the residue outwards. * marks the point of attachment. C20 diacid = O=C(O)CCCCCCCCCCCCCCCCCCC(=O)*; C18 diacid = O=C(O)CCCCCCCCCCCCCCCCC(=O)*; γGlu = O=C(O)[C@H](CCC(=O)[*:2])N[*:1]; AEEA = NCCOCCOCC(=O)O; Aib = CC(C)(N)C(=O)O

molecular target: T1, human GIP receptor (hGIPR) (Homo sapiens, UniProt P48546); assay: GIP receptor assay, method A (CRE-luciferase reporter, BHK cells); format: cell-based; settings: hGIPR Potency, 1% HSA, EC50, method A, in the presence of 1% HSA
T1 construct: expressed in transfected cells
T1 sequence (P48546 22-466): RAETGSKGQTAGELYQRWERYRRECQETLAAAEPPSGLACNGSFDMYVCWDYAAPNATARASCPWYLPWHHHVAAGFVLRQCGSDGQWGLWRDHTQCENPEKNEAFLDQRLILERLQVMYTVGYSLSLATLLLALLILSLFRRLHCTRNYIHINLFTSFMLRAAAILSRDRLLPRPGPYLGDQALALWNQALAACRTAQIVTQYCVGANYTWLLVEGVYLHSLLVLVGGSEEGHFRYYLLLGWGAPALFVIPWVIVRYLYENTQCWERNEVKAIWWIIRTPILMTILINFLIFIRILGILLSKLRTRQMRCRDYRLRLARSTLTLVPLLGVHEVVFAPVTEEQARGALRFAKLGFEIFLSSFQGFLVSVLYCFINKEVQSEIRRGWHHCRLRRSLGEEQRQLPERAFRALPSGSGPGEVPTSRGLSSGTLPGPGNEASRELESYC
Summary of the method: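 BHK cells co-expressing hGIPR and a CRE-luciferase reporter were stimulated for 3 h at 37 °C with a 7-point, 10-fold compound titration in duplicate. Buffer was DMEM, 10 mM HEPES, 1% ovalbumin, 0.1% Pluronic F-68, without HSA or with 1% (w/v) HSA. EC50 [pM] came from four-parameter logistic fits of luminescence.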

Substance	EC50
H[Aib]HGTFTSDYSILLEEQAAREFIEWLLAGGPSSGEASHLSTAALGRLSAK([AEEA-AEEA-γGlu-C18 diacid])LHRLATLPRTETGSGSP-NH2 [Compound 87]	38.6 pM
Y[Aib]EGTFTSDYSILLEEQAAREFIEWLLAGGPSRGEASHLSTAQTQRLSAELHK([AEEA-AEEA-γGlu-C18 diacid])LATLPRTETGSGSP-NH2 [compound 68]	11.9 pM
Y[Aib]EGTFTSDYSILLEEQAAREFIEWLLAGGPSSGAGQAPGQAPGASHLSTAQTQRLSAELHK([AEEA-AEEA-γGlu-C18 diacid])LATLPRTETGSGSP-NH2 [compound 52]	6.79 pM
Y[Aib]EGTFTSDYSILLEEQAAREFIEWLLAGGPSSGAGQAPGQAPGASHLSTAQTQRLSAK([AEEA-AEEA-γGlu-C18 diacid])LHRLATLPRTETGSGSP-NH2 [compound 55]	10.3 pM
Y[Aib]EGTFTSDYSILLEEQAAREFIEWLLAGGPSSGAGQAPGQAPLASHLSTAQTQRLSAELHK([AEEA-AEEA-γGlu-C18 diacid])LATLPRTETGSGSP-NH2 [compound 58]	7.58 pM

same assay, conditions: method A, absence of HSA; read-out: hGIPR Potency, no HSA, EC50

Substance	EC50
H[Aib]HGTFTSDYSILLEEQAAREFIEWLLAGGPSSGEASHLSTAALGRLSAK([AEEA-AEEA-γGlu-C18 diacid])LHRLATLPRTETGSGSP-NH2 [Compound 87]	7.26 pM
Y[Aib]EGTFTSDYSILLEEQAAREFIEWLLAGGPSRGEASHLSTAQTQRLSAELHK([AEEA-AEEA-γGlu-C18 diacid])LATLPRTETGSGSP-NH2 [compound 68]	1.83 pM
Y[Aib]EGTFTSDYSILLEEQAAREFIEWLLAGGPSSGAGQAPGQAPGASHLSTAQTQRLSAELHK([AEEA-AEEA-γGlu-C18 diacid])LATLPRTETGSGSP-NH2 [compound 52]	1.83 pM
Y[Aib]EGTFTSDYSILLEEQAAREFIEWLLAGGPSSGAGQAPGQAPGASHLSTAQTQRLSAK([AEEA-AEEA-γGlu-C18 diacid])LHRLATLPRTETGSGSP-NH2 [compound 55]	3 pM
Y[Aib]EGTFTSDYSILLEEQAAREFIEWLLAGGPSSGAGQAPGQAPLASHLSTAQTQRLSAELHK([AEEA-AEEA-γGlu-C18 diacid])LATLPRTETGSGSP-NH2 [compound 58]	1.88 pM

test system: Male Sprague Dawley (SD) rats; assay: Efficacy testing on appetite: acute food intake in ad libitum fed normal weight rats; format: in vivo, rat; settings: single dose 10 nmol/kg, day 1 [0-24 hours]
Excerpt: Male Sprague Dawley (SD) rats from Taconic, Denmark were used for the acute food intake experiments, wherein the principles of laboratory animal care were followed.
The rats arrived at least 10-14 days before the start of the experiment to allow acclimatization to experimental settings. During this period, the animals were handled (fixation by restrain in neck skin) at least 2 times. Immediately upon arrival, rats were changed to a reversed light cycle (dark from 11 am-11 pm) and were transferred to an automated food intake measuring system (HM2 system, MBRose; Faaborg, Denmark). […] To enable recording of individual food intake, rats were ID chipped. Three rats were housed in each cage. During the acclimatization period, in which the rats get used to the new light cycle and diet (LF 10% (D12450B), from Research Diets Inc.), the animals had free access to food and water. Since rats are normally active and consume most of their daily calories during the dark period, rats were dosed in the morning right before lights were turned off. Such a set-up results in the lowest data variation and highest test sensitivity. […] In each cage there were animals from three different treatment groups (to eliminate potential cage effects (e.g. cage malfunction) on primary readout: food intake). The rats were dosed once subcutaneously (s.c.) with the peptide of interest according to body weight (10 or 30 nmol/kg) in vehicle (0.5 ml/kg) using a NovoPen® (Novo Nordisk, Bagsvæed, Denmark).
The compounds of the invention were formulated (20 or 60 nmol/ml) in the following vehicle: 8 mM phosphate; 250 mM glycerol; 0.007% polysorbate 20, pH 7.4.
After dosing, the rats were returned to their home cages, where they continued to have ad libitum access to chow and water. The food consumption was recorded individually and continuously by the HM2 system from 0-72 h after test compound administration. Data obtained by the HM-2 system were stored in a HMBase SQL database (Firebird® relational database management system) and were processed by HM2Lab software (MBRose; Faaborg, Denmark) installed in an embedded computer. The feeding system is a highly sensitive system with a load resolution of 0.001 g.

Substance	Food intake (relative to vehicle) Day 1
H[Aib]HGTFTSDYSILLEEQAAREFIEWLLAGGPSSGEASHLSTAALGRLSAK([AEEA-AEEA-γGlu-C18 diacid])LHRLATLPRTETGSGSP-NH2 [Compound 87]	−91%
Y[Aib]EGTFTSDYSILLEEQAAREFIEWLLAGGPSSGAGQAPGQAPGASHLSTAQTQRLSAELHK([AEEA-AEEA-γGlu-C20 diacid])LATLPRTETGSGSP-NH2 [Compound 115]	−44.5%

same assay, conditions: single dose 10 nmol/kg, day 2 [24-48 hours]

Substance	Food intake (relative to vehicle) Day 2
H[Aib]HGTFTSDYSILLEEQAAREFIEWLLAGGPSSGEASHLSTAALGRLSAK([AEEA-AEEA-γGlu-C18 diacid])LHRLATLPRTETGSGSP-NH2 [Compound 87]	−86%
Y[Aib]EGTFTSDYSILLEEQAAREFIEWLLAGGPSSGAGQAPGQAPGASHLSTAQTQRLSAELHK([AEEA-AEEA-γGlu-C20 diacid])LATLPRTETGSGSP-NH2 [Compound 115]	−76.5%

same assay, conditions: single dose 10 nmol/kg, day 3 [48-72 hours]

Substance	Food intake (relative to vehicle) Day 3
H[Aib]HGTFTSDYSILLEEQAAREFIEWLLAGGPSSGEASHLSTAALGRLSAK([AEEA-AEEA-γGlu-C18 diacid])LHRLATLPRTETGSGSP-NH2 [Compound 87]	−24%
Y[Aib]EGTFTSDYSILLEEQAAREFIEWLLAGGPSSGAGQAPGQAPGASHLSTAQTQRLSAELHK([AEEA-AEEA-γGlu-C20 diacid])LATLPRTETGSGSP-NH2 [Compound 115]	−38%
